Columns and labels:
Assay in all cases: relative viability (nuclei count vs DMSO), 5 days (fraction); higher = more cells survive
201T = tested on: 201T
How it was run: (§1)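 Lung cancer cell lines were seeded in 1536-well plates and dosed by pin tool the next day, with either a single drug or a fixed anchor-drug dose combined with five library-drug doses (not always all listed) spaced in √10 steps. Five days later, one step fixed the cells and stained their nuclei (final 0.05% Triton X-100, 1% formaldehyde, 1 ug/ml Hoechst), and nuclei were counted on 4× images. Relative viability is the nuclei count in treated wells divided by the count in vehicle wells, and each value is the median of duplicate plates.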

A-427 = tested on: A-427
How it was run: as §1

COR-L23 = tested on: COR-L23
How it was run: as §1

HARA = tested on: HARA
How it was run: as §1

HCC-78 = tested on: HCC-78
How it was run: as §1

LCLC-103H = tested on: LCLC-103H
How it was run: as §1

LCLC-97TM1 = tested on: LCLC-97TM1
How it was run: as §1

LK-2 = tested on: LK-2
How it was run: as §1

LOU-NH91 = tested on: LOU-NH91
How it was run: as §1

LXF-289 = tested on: LXF-289
How it was run: as §1

NCI-H1651 = tested on: NCI-H1651
How it was run: as §1

NCI-H1793 = tested on: NCI-H1793
How it was run: as §1

NCI-H2347 = tested on: NCI-H2347
How it was run: as §1

NCI-H23 = tested on: NCI-H23
How it was run: as §1

NCI-H2405 = tested on: NCI-H2405
How it was run: as §1

NCI-H520 = tested on: NCI-H520
How it was run: as §1

NCI-H647 = tested on: NCI-H647
How it was run: as §1

NCI-H838 = tested on: NCI-H838
How it was run: as §1

PC-3 [JPC-3] = tested on: PC-3 [JPC-3]
How it was run: as §1

RERF-LC-KJ = tested on: RERF-LC-KJ
How it was run: as §1

UMC-11 = tested on: UMC-11
How it was run: as §1

CCNC(=O)c1noc(-c2cc(C(C)C)c(O)cc2O)c1-c1ccc(CN2CCOCC2)cc1 [Luminespib] + Cc1nc(NC(=O)N2CCC[C@H]2C(N)=O)sc1-c1ccnc(C(C)(C)C(F)(F)F)c1 [Alpelisib] (partner 2 µM)
relative viability (201T; first compound 0.002 µM): 0.965 | relative viability (201T; first compound 0.006325 µM): 1.01 | relative viability (201T; first compound 0.02 µM): 0.96 | relative viability (201T; first compound 0.06325 µM): 1.04 | relative viability (201T; first compound 0.2 µM): 1.03 | relative viability (A-427; first compound 0.002 µM): 1.02 | relative viability (A-427; first compound 0.006325 µM): 1.07 | relative viability (A-427; first compound 0.02 µM): 0.697 | relative viability (A-427; first compound 0.06325 µM): 1.08 | relative viability (A-427; first compound 0.2 µM): 1.09 | relative viability (COR-L23; first compound 0.002 µM): 0.825 | relative viability (COR-L23; first compound 0.006325 µM): 0.685 | relative viability (COR-L23; first compound 0.02 µM): 0.714 | relative viability (COR-L23; first compound 0.06325 µM): 0.0624 | relative viability (COR-L23; first compound 0.2 µM): 0.0515 | relative viability (HARA; first compound 0.002 µM): 0.835 | relative viability (HARA; first compound 0.006325 µM): 0.676 | relative viability (HARA; first compound 0.02 µM): 0.85 | relative viability (HARA; first compound 0.06325 µM): 0.759 | relative viability (HARA; first compound 0.2 µM): 0.103 | relative viability (HCC-78; first compound 0.002 µM): 0.309 | relative viability (HCC-78; first compound 0.06325 µM): 0.585 | relative viability (HCC-78; first compound 0.2 µM): 0.216 | relative viability (LCLC-103H; first compound 0.002 µM): 0.969 | relative viability (LCLC-103H; first compound 0.006325 µM): 1.01 | relative viability (LCLC-103H; first compound 0.02 µM): 0.85 | relative viability (LCLC-103H; first compound 0.06325 µM): 0.928 | relative viability (LCLC-103H; first compound 0.2 µM): 1 | relative viability (LCLC-97TM1; first compound 0.002 µM): 0.286 | relative viability (LCLC-97TM1; first compound 0.006325 µM): 0.254 | relative viability (LCLC-97TM1; first compound 0.02 µM): 0.19 | relative viability (LCLC-97TM1; first compound 0.06325 µM): 0.323 | relative viability (LCLC-97TM1; first compound 0.2 µM): 0.194 | relative viability (LK-2; first compound 0.002 µM): 1.26 | relative viability (LK-2; first compound 0.006325 µM): 1.31 | relative viability (LK-2; first compound 0.02 µM): 0.691 | relative viability (LK-2; first compound 0.06325 µM): 0.71 | relative viability (LK-2; first compound 0.2 µM): 0.259 | relative viability (LOU-NH91; first compound 0.002 µM): 0.717 | relative viability (LOU-NH91; first compound 0.006325 µM): 0.646 | relative viability (LOU-NH91; first compound 0.02 µM): 0.543 | relative viability (LOU-NH91; first compound 0.06325 µM): 0.43 | relative viability (LOU-NH91; first compound 0.2 µM): 0.381 | relative viability (LXF-289; first compound 0.002 µM): 1.03 | relative viability (LXF-289; first compound 0.006325 µM): 0.97 | relative viability (LXF-289; first compound 0.02 µM): 1.09 | relative viability (LXF-289; first compound 0.06325 µM): 0.52 | relative viability (LXF-289; first compound 0.2 µM): 0.161 | relative viability (NCI-H1651; first compound 0.002 µM): 0.899 | relative viability (NCI-H1651; first compound 0.006325 µM): 0.854 | relative viability (NCI-H1651; first compound 0.02 µM): 0.881 | relative viability (NCI-H1651; first compound 0.06325 µM): 0.42 | relative viability (NCI-H1651; first compound 0.2 µM): 0.262 | relative viability (NCI-H1793; first compound 0.002 µM): 0.806 | relative viability (NCI-H1793; first compound 0.006325 µM): 0.536 | relative viability (NCI-H1793; first compound 0.02 µM): 0.319 | relative viability (NCI-H1793; first compound 0.06325 µM): 0.212 | relative viability (NCI-H1793; first compound 0.2 µM): 0.165 | relative viability (NCI-H2347; first compound 0.002 µM): 1.14 | relative viability (NCI-H2347; first compound 0.02 µM): 0.779 | relative viability (NCI-H2347; first compound 0.06325 µM): 0.936 | relative viability (NCI-H2347; first compound 0.2 µM): 0.382 | relative viability (NCI-H23; first compound 0.002 µM): 0.814 | relative viability (NCI-H23; first compound 0.006325 µM): 0.56 | relative viability (NCI-H23; first compound 0.02 µM): 0.504 | relative viability (NCI-H23; first compound 0.06325 µM): 0.141 | relative viability (NCI-H23; first compound 0.2 µM): 0.116 | relative viability (NCI-H2405; first compound 0.002 µM): 0.968 | relative viability (NCI-H2405; first compound 0.006325 µM): 0.513 | relative viability (NCI-H2405; first compound 0.02 µM): 0.483 | relative viability (NCI-H2405; first compound 0.06325 µM): 0.19 | relative viability (NCI-H2405; first compound 0.2 µM): 0.15 | relative viability (NCI-H520; first compound 0.002 µM): 0.916 | relative viability (NCI-H520; first compound 0.006325 µM): 0.875 | relative viability (NCI-H520; first compound 0.02 µM): 1.01 | relative viability (NCI-H520; first compound 0.06325 µM): 0.131 | relative viability (NCI-H520; first compound 0.2 µM): 0.15 | relative viability (NCI-H647; first compound 0.002 µM): 1.25 | relative viability (NCI-H647; first compound 0.006325 µM): 1.12 | relative viability (NCI-H647; first compound 0.02 µM): 1.03 | relative viability (NCI-H647; first compound 0.06325 µM): 0.103 | relative viability (NCI-H647; first compound 0.2 µM): 0.0917 | relative viability (NCI-H838; first compound 0.002 µM): 1.03 | relative viability (NCI-H838; first compound 0.006325 µM): 0.927 | relative viability (NCI-H838; first compound 0.02 µM): 0.589 | relative viability (NCI-H838; first compound 0.06325 µM): 0.168 | relative viability (NCI-H838; first compound 0.2 µM): 0.153 | relative viability (PC-3 [JPC-3]; first compound 0.002 µM): 1.09 | relative viability (PC-3 [JPC-3]; first compound 0.006325 µM): 0.908 | relative viability (PC-3 [JPC-3]; first compound 0.02 µM): 0.871 | relative viability (PC-3 [JPC-3]; first compound 0.06325 µM): 1.08 | relative viability (PC-3 [JPC-3]; first compound 0.2 µM): 0.957 | relative viability (RERF-LC-KJ; first compound 0.002 µM): 0.813 | relative viability (RERF-LC-KJ; first compound 0.006325 µM): 0.894 | relative viability (RERF-LC-KJ; first compound 0.02 µM): 0.51 | relative viability (RERF-LC-KJ; first compound 0.06325 µM): 0.541 | relative viability (RERF-LC-KJ; first compound 0.2 µM): 0.242 | relative viability (UMC-11; first compound 0.002 µM): 0.943 | relative viability (UMC-11; first compound 0.006325 µM): 0.907 | relative viability (UMC-11; first compound 0.02 µM): 0.653 | relative viability (UMC-11; first compound 0.06325 µM): 0.342 | relative viability (UMC-11; first compound 0.2 µM): 0.129
